Experimental data from patent US4985409A, “Adenosine derivatives and pharmaceutical composition thereof” (Nippon Zoki Pharmaceutical Co., Ltd., priority 1989, dated 1991).

Legend:
[1] = system: spontaneously hypertensive rats (SHR); test: Antihypertensive activity (blood pressure in spontaneously hypertensive rats, oral); type: in vivo; conditions: mean ±S.E.
Method: The test compounds, which were dissolved or suspended in 0.5% C.M.C. aqueous solution, were orally administered to groups of 3 spontaneously hypertensive rats (SHR), 33 to 36 weeks old, which were fasted for 20 hours before drug administration. Blood pressure was measured before and 2 hours after the administration of the test drug.

[2] = Acute toxicity test (oral LD50, death rate for 14 days); conditions: mouse, in vivo, ddY-strain male mice
Method: The test compounds of the present invention, which were dissolved or suspended in 0.5% carboxymethylcellulose (C.M.C.) aqueous solution, were orally administered to groups of 2 to 5 ddY-strain male mice, and the LD50 values were calculated based on the death rate for 14 days thereafter.

[3] = Rattus norvegicus, 2 hours after oral 0.3 mg/kg, read-out: Blood pressure (Decrease %)
[4] = Rattus norvegicus, 2 hours after oral 3 mg/kg, read-out: Blood pressure (Decrease %)

| SMILES | Blood pressure 2 hrs ([1]; 2 hours after oral 3 mg/kg) [mmHg] | inhibition in vivo at 3 mg/kg [1, 4] [%] | LD50 at 336 h [2] [mg/kg] | further results |
| --- | --- | --- | --- | --- |
| CO[C@@H]1[C@H](O)[C@@H](CO)O[C@H]1n1cnc2c(NC3CCCC3)ncnc21 [Compound 1, N^6-cyclopentyl-2'-O-methyladenosine] | – | – | – | Blood pressure 2 hrs ([1]; 2 hours after oral 0.3 mg/kg): 98 ± 8 mmHg; inhibition in vivo at 0.3 mg/kg [1, 3]: 56.5 ± 5.5% |
| CO[C@@H]1[C@H](O)[C@@H](CO)O[C@H]1n1cnc2c(NC3CCCCC3)ncnc21 [Compound 2, N^6-cyclohexyl-2'-O-methyladenosine] | – | – | – | Blood pressure 2 hrs ([1]; 2 hours after oral 0.3 mg/kg): 129 ± 8 mmHg; inhibition in vivo at 0.3 mg/kg [1, 3]: 37.5 ± 1.7% |
| CO[C@@H]1[C@H](O)[C@@H](CO)O[C@H]1n1cnc2c(NCC(c3ccccc3)c3ccccc3)ncnc21 [Compound 5, N^6-(2,2-diphenylethyl)-2'-O-methyladenosine] | 148 ± 19 | 30 ± 8.4 | – | – |
| CO[C@@H]1[C@H](O)[C@@H](CO)O[C@H]1n1cnc2c(NCc3cccc4ccccc34)ncnc21 [Compound 8, N^6-(1-naphthyl)methyl-2'-O-methyladenosine] | 140 ± 7 | 36.2 ± 5.7 | 230 | – |
| CO[C@@H]1[C@H](O)[C@@H](CO)O[C@H]1n1cnc2c(NC3CCc4ccccc43)ncnc21 (stereo partly shown) [Compound 11, N^6-(2,3-dihydro-1H-indene-1-yl)-2'-O-methyladenosine] | 133 ± 21 | 41.3 ± 7 | 450 | – |
| CO[C@@H]1[C@H](O)[C@@H](CO)O[C@H]1n1cnc2c(NC3Cc4ccccc4C3)ncnc21 [Compound 12, N^6-(2,3-dihydro-1H-indene-2-yl)-2'-O-methyladenosine] | – | – | – | Blood pressure 2 hrs ([1]; 2 hours after oral 10 mg/kg): 164 ± 5 mmHg; inhibition in vivo at 10 mg/kg ([1]; Rattus norvegicus, 2 hours after oral 10 mg/kg, read-out: Blood pressure (Decrease %)): 22.7 ± 2.2% |
| CO[C@@H]1[C@H](O)[C@@H](CO)O[C@H]1n1cnc2c(NC3CCCc4ccccc43)ncnc21 (stereo partly shown) [Compound 16, N^6-(1-tetrahydronaphthyl)-2'-O-methyladenosine] | 109 ± 9 | 47.2 ± 4.2 | 230 | – |
| CO[C@@H]1[C@H](O)[C@@H](CO)O[C@H]1n1cnc2c(NC3CCc4ccccc4C3)ncnc21 (stereo partly shown) [Compound 17, N^6-(2-tetrahydronaphthyl)-2'-O-methyladenosine] | 187 ± 7 | 14.5 ± 1.9 | – | – |
| CO[C@@H]1[C@H](O)[C@@H](CO)O[C@H]1n1cnc2c(NC3CCOc4ccccc43)ncnc21 (stereo partly shown) [Compound 24, N^6-(4-chromanyl)-2'-O-methyladenosine] | – | – | 250 | Blood pressure 2 hrs ([1]; 2 hours after oral 1 mg/kg): 98 ± 15 mmHg; inhibition in vivo at 1 mg/kg ([1]; Rattus norvegicus, 2 hours after oral 1 mg/kg, read-out: Blood pressure (Decrease %)): 55.4 ± 5.6% |
